In one series the test system is C57BL/6 mice. As to the kind of experiment: Head twitch response (HTR) in mice. The class given is in vivo, mouse. The following applies: SC; for ED50: 20 min, read-out: ED50 (95% CI); for ED50 / Most Efficacious Dose / Emax (95% CI): mouse HTR; for ED50 / Emax (95% CI): 20 min observation, curve fit, poor in some cases. As for the experimental part: Agonists of the 5-HT2A receptor are well known to induce this effect in rodents and the potency of this HTR is correlated with hallucinogenic potency in humans.
Animals. Adult male C57BL/6 mice, aged 6-8 weeks (body weight 20-25 g) were used in this experiment. Animals were housed under controlled temperatures and 12-hour light/dark cycles (lights on between 07:00-19:00 h), with ad libitum food and water. This study was carried out in strict accordance with the requirements of the Committee for the Purpose of Control and Supervision of Experiments on Animals (CPCSEA), India. All efforts were made to minimize suffering.
Drugs and Drug Administration. Compound 1 was synthesized as described above. It was administered subcutaneously (SC) dissolved in saline vehicle at a volume of 10 mL/kg. Five doses were tested, with n=6 animals/group. Doses were calculated on the basis of the freebase.
Procedure. Mice were administered one dose of the drug and immediately placed into a small open field for behavioral observation. Animals were observed continuously for 20 mins and the number of head twitches (HTs) were counted by an observer blind to the treatment condition.
Statistical Analysis. The data points shown are the mean±standard error of the mean (SEM). Analysis was performed using GraphPad Prism 6. Curves were fit using a non-linear gaussian distribution to calculate ED50 and Emax values.
Additional disclosed compounds were tested in the mouse head twitch response (HTR) assay according to the procedure described in Example 43. […] Lastly, compounds with much larger benzyl and phenethyl substituents on the amine nitrogen (e.g., 10 and 11) were low efficacy in this assay, consistent with their lower maximal efficacy in the arrestin functional assay (see Example 41).

Another series has as its target T1, human 5-HT2C receptor (Homo sapiens, UniProt P28335).
T1 sequence (P28335 33-458): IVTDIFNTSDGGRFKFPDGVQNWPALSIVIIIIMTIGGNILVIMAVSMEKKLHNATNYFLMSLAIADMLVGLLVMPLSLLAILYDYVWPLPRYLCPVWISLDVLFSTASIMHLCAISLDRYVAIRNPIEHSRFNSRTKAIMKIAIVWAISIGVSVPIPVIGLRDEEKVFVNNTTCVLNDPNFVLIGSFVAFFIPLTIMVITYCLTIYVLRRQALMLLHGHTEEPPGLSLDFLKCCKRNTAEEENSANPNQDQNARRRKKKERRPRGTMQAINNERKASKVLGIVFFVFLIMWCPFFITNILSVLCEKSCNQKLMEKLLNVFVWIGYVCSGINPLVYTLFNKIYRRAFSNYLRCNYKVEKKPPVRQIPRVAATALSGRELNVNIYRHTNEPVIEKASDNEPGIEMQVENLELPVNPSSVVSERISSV
Nature of the series: cell-based. The following applies: Ca^2+ flux, agonist.

A short description of series [1]: Metabolic stability in mouse liver microsomes (MLM). It is filed as in vitro ADME. The conditions noted are these: 0.50 mg protein per mL; for t1/2: MLM (CD-1), 1 μM; for microsomal CLint at 1 μM: mouse, pooled mouse liver microsomes, pH 7.4, MLM (CD-1). An excerpt:
MLM Stability Pooled MLM from CD-1 mice (BIOIVT M00501) were used.
On the technique in general: Liver microsomes are vesicles of endoplasmic reticulum, rich in cytochrome P450 enzymes.

Series [2] concerns the target T2, 5-HT2A receptor (Homo sapiens, UniProt P28223).
T2 construct: host or cells: HEK293
Nature of the series: PathHunter beta-arrestin recruitment assay at 5-HT2A. The class given is cell-based. The following applies: for Emax / agonist type in arrestin recruitment assay (in words): 5-HT2A beta-arrestin. As for the experimental part: The degree of arrestin bias varied substantially across the other compounds tested as well.
Arrestin Functional Assay at 5-HT2A. Recruitment of beta-arrestin was determined using a PathHunter assay at Eurofins DiscoverX (Fremont, Calif.) according to their standard protocols. PathHunter GPCR beta-arrestin assays take advantage of DiscoverX's proprietary Enzyme Fragment Complementation technology. The GPCR is fused in frame with a small enzyme donor fragment ProLink™ (PK) and co-expressed in cells stably expressing a fusion protein of beta-arrestin and the larger, N-terminal deletion mutant of beta-galactosidase. Activation of the GPCR (5-HT2A receptor in this case) stimulates binding of beta-arrestin to the PK-tagged GPCR and forces complementation of the two enzyme fragments, resulting in the formation of an active beta-galactosidase enzyme. This interaction leads to an increase in enzyme activity that can be measured using chemiluminescent PathHunter Detection Reagents. Briefly, PathHunter cells expressing 5-HT2A receptors were seeded in a volume of 20 μL into 384-well plates and incubated at 37° C. for the appropriate time prior to testing. […] Plates were then imaged on a microplate reader and the agonist activity was calculated using the following formula: % Activity=100%×(mean RLU of test sample−mean RLU of vehicle control)/(mean MAX control ligand−mean RLU of vehicle control), where RLU=relative light units.

Another series deals with T3, 5-HT1A receptor (Homo sapiens, UniProt P08908).
T3 construct: host or cells: CHO cells
T3 sequence (P08908 1-422): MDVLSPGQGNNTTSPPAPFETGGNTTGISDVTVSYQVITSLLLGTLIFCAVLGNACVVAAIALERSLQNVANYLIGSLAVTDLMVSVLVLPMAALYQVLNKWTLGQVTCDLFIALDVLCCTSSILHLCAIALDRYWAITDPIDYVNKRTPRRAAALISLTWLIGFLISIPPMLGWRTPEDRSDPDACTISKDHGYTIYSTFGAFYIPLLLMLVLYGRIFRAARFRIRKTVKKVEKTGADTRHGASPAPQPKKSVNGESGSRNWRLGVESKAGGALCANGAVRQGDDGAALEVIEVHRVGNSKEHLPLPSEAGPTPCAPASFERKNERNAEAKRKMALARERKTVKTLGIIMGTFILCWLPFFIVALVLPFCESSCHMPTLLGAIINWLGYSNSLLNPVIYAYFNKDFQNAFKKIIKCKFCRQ
Nature of the series: cell-based.

The target in the next series is T4, 5-HT2B receptor (Homo sapiens, UniProt P41595).
T4 construct: host or cells: HEK293
T4 sequence (P41595 whole entry): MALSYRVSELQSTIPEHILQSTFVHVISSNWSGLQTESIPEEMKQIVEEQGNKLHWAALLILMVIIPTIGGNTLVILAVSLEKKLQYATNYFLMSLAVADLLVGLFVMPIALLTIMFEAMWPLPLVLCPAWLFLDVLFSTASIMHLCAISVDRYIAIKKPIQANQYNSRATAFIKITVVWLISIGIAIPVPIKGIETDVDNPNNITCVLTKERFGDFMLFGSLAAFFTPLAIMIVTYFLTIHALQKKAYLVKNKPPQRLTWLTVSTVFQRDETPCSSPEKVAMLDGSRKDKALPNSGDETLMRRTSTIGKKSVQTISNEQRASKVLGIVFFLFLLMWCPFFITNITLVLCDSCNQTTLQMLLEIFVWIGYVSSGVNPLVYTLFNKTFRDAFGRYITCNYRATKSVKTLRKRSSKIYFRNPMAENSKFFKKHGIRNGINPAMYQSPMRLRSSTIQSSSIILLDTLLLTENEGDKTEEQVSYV
As to the kind of experiment: cell-based. The following applies: Ca^2+ flux, agonist; read-out: 5-HT2B EC50.

Series [3] deals with T2, 5-HT2A receptor. Nature of the series: biochemical. It is filed as binding. The conditions noted are these: 1 nM [^3H]ketanserin, HEK293 stable cell line; read-out: 5-HT2A Receptor Ki (nM) ([^3H]ketanserin). In outline:
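Binding affinity comes from a [^3H]ketanserin radioligand assay run under literature-adapted conditions.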

Series [4] concerns the target T2, 5-HT2A receptor. Nature of the series: cell-based. It is filed as cell-based. The conditions noted are these: Ca^2+ flux, agonist; read-out: 5-HT2A EC50.
Series [5] is described as follows: Metabolic stability in rat liver microsomes (RLM). The conditions noted are these: for t1/2: RLM, 0.50 mg protein per mL; for microsomal CLint at 1 μM: both, rat, pooled rat liver microsomes, pH 7.4.
Series [6] can be described thus: Metabolic stability in human liver microsomes (HLM). It is filed as in vitro ADME. The following applies: for t1/2: 1 μM, 0.50 mg protein per mL; for microsomal CLint at 1 μM: both sexes, human, pooled human liver microsomes, pH 7.4, 0.50 mg protein per mL. An excerpt:
HLM Stability. Pooled HLM from adult male and female donors (Corning 452117) were used.

The mark [7] stands for this setting: Ca^2+ flux, agonist, read-out: 5-HT1A EC50.

Read-outs that look alike come from different tables or passages of the source.

T2 sequence (P28223 whole entry): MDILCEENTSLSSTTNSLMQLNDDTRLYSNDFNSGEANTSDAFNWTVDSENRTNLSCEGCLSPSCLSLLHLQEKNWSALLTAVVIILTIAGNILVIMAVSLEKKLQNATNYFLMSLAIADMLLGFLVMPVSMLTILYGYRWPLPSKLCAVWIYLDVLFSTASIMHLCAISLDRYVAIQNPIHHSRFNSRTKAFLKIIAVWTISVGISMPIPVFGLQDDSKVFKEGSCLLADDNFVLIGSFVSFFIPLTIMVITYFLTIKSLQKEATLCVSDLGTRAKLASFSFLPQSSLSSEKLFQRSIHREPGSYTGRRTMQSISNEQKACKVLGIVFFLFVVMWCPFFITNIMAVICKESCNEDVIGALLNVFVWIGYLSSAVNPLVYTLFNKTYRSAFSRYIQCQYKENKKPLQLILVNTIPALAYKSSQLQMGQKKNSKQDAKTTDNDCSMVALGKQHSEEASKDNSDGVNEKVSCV

Broadly, the ED50 is the midpoint of the dose-response relation. By EC50 is commonly meant the concentration giving half of the maximal effect. What is called microsomal CLint is the capacity of the preparation to metabolise the compound, expressed as a volume cleared per time. The low end stands for slow turnover, the high end for rapid turnover. A word on the Emax: it is the size of the effect at its maximum, as opposed to the concentration needed. What is called Ki is a measure of affinity in units of concentration, obtained from inhibition or displacement. On to `CCC(CC)NC(=O)[C@@H]1C=C2c3cccc4[nH]cc(c34)C[C@H]2N(C)C1` [Int14, (6aR,9R)-7-methyl-N-(pentan-3-yl)-4,6,6a,7,8,9-hexahydroindolo[4,3-fg]quinoline-9-carboxamide], for which the ED50 in the series on C57BL/6 mice turned out to be 1.47 mg/kg. The “Most Efficacious Dose” value in the series with C57BL/6 mice was 1 mg/kg. The “Emax (95% CI)” value in the series on C57BL/6 mice was 21.63 (10.59-???). Besides, the concentration for a half-maximal effect (EC50) at human 5-HT2C receptor is 3.63 nM; at 5-HT2A receptor [2], 1.48 nM; at 5-HT1A receptor, 46 nM; on 5-HT2B receptor it was above 10000 nM; on 5-HT2A receptor [4], 15.9 nM. Further, the “t1/2” value in series [1] worked out at 6.07 min; in [5] it was 37.988 min; in series [6], 17.593 min. Also, the microsomal CLint at 1 μM stood at 228 µL/min/mg in [1], 36.5 µL/min/mg in [5] and 78.8 µL/min/mg in series [6]. Further, the Emax on 5-HT2A receptor [2] is below 60%. Moreover, on 5-HT2A receptor [2], the “agonist type in arrestin recruitment assay (in words)” value (from here on “agonist type”) was “partial agonists”. The Ki on 5-HT2A receptor [3] came out at 0.47 nM.

Turning to `CCC[C@@H](C)NC(=O)[C@@H]1C=C2c3cccc4[nH]cc(c34)C[C@H]2N(C)C1` [Int17, (6aR,9R)-7-methyl-N—((R)-pentan-2-yl)-4,6,6a,7,8,9-hexahydroindolo[4,3-fg]quinoline-9-carboxamide], the ED50 in the series on C57BL/6 mice came to 0.00405 mg/kg. Further, the “Most Efficacious Dose” value in the series on C57BL/6 mice turned out to be 0.32 mg/kg. Besides, the “Emax (95% CI)” value in the series on C57BL/6 mice is recorded as 4.96 (3.764-6.286). In the series on C57BL/6 mice (mouse, head twitches in 20 min), the “# HTR at Most Efficacious Dose” value was found to be 6.0. The EC50 came out at 2.53 nM at human 5-HT2C receptor; 1.19 nM at 5-HT2A receptor [2]; 7.01 nM at 5-HT1A receptor (setting [7]); 70.8 nM at 5-HT2B receptor; 9.67 nM on 5-HT2A receptor [4]. Further, the “t1/2” value in series [1] stood at 8.252 min; in series [5] it was 27.894 min; in [6] it was 15.865 min. Also, the figures for the microsomal CLint at 1 μM in series [1], in series [5] and in series [6] were 168 µL/min/mg, 49.7 µL/min/mg and 87.4 µL/min/mg, respectively. This molecule also had a maximal response (Emax) on 5-HT2A receptor [2] below 60%. Besides, the “agonist type” value at 5-HT2A receptor [2] was “partial agonists”. The Ki on 5-HT2A receptor [3] was determined as 0.41 nM.

`C=CCN1C[C@H](C(=O)N[C@H](C)CC)C=C2c3cccc4[nH]cc(c34)C[C@H]21` [Compound 8, (6aR,9R)-7-allyl-N—((R)-sec-butyl)-4,6,6a,7,8,9-hexahydroindolo[4,3-fg]quinoline-9-carboxamide]: the ED50 in the series on C57BL/6 mice came out at 0.0282 mg/kg. The “Most Efficacious Dose” value in the series with C57BL/6 mice was found to be 1 mg/kg. Also, the “Emax (95% CI)” value in the series on C57BL/6 mice is reported as 12.03 (9.571-14.68). Further, the EC50 came out at 4.05 nM on human 5-HT2C receptor; 1.71 nM at 5-HT2A receptor [2]; 2.53 nM at 5-HT1A receptor (setting [7]); 22.2 nM at 5-HT2B receptor; 0.678 nM at 5-HT2A receptor [4]. For the same molecule, the “t1/2” value was 3.7 min in series [1], 7.7 min in series [5] and 7.9 min in [6]. The microsomal CLint at 1 μM is 377 µL/min/mg in [1], 180 µL/min/mg in series [5] and 174 µL/min/mg in series [6]. Besides, the “agonist type” value at 5-HT2A receptor [2] is “full agonists”. For the same molecule, the inhibitory constant (Ki) on 5-HT2A receptor [3] was found to be 2.38 nM.

On to `CCC[C@@H](C)NC(=O)[C@@H]1C=C2c3cccc4[nH]cc(c34)C[C@H]2N(CCC)C1` [Compound 7, (6aR,9R)—N—((R)-pentan-2-yl)-7-propyl-4,6,6a,7,8,9-hexahydroindolo[4,3-fg]quinoline-9-carboxamide], for which the ED50 in the series on C57BL/6 mice was 58.9 mg/kg. Further, the “Most Efficacious Dose” value in the series on C57BL/6 mice was found to be 1 mg/kg. Also, the “Emax (95% CI)” value in the series on C57BL/6 mice was 720.4 (???-???). Moreover, the EC50 at human 5-HT2C receptor amounted to 1.99 nM; at 5-HT2A receptor [2], 1.6 nM; at 5-HT1A receptor (setting [7]), 12.8 nM; at 5-HT2B receptor, 364 nM; at 5-HT2A receptor [4], 13.2 nM. The “t1/2” value was 0.541 min in [1], 1.612 min in series [5] and 1.65 min in [6]. The microsomal CLint at 1 μM in [1] was found to be 2560 µL/min/mg; in series [5], 860 µL/min/mg; in [6] it was 840 µL/min/mg. In addition, the “agonist type” value on 5-HT2A receptor [2] was “full agonists”. The Ki on 5-HT2A receptor [3] came to 0.85 nM.

Turning to `CCN(CC)C(=O)[C@H]1C=C2c3cccc4[nH]cc(c34)C[C@H]2N(CCCF)C1` [Compound 2a, (6aR,9S)—N,N-diethyl-7-(3-fluoropropyl)-4,6,6a,7,8,9-hexahydroindolo[4,3-fg]quinoline-9-carboxamide], the EC50 turned out to be 256 nM on human 5-HT2C receptor; 50.6 nM on 5-HT2A receptor [2]; 543 nM on 5-HT1A receptor (setting [7]); 2170 nM on 5-HT2B receptor; 169 nM on 5-HT2A receptor [4]. The “t1/2” value was determined as 1.776 min in series [1], 9.673 min in [5] and 17.018 min in [6]. The figures for the microsomal CLint at 1 μM in series [1], in series [5] and in [6] were 780 µL/min/mg, 143 µL/min/mg and 81.4 µL/min/mg, respectively. Further, on 5-HT2A receptor [3], the inhibition constant (Ki) came out at 115 nM.

Values taken from patent US20230116703A1, “NOVEL ERGOLINES AND METHODS OF TREATING MOOD DISORDERS” (priority 2021, published 2023).
